Source: patent US20070249670A1, “Glycogen Phosphorylase Inhibitor Compounds and Pharmaceutical Compositions Thereof” (SMITHKLINE BEECHAM CORPORATION, priority 2004, published 2007)

Target: T1, human liver glycogen phosphorylase a (HLGPa) (Homo sapiens, UniProt P06737)
T1 construct: creating a full-length cDNA fused at the 5′ end to codons for methionine-glycine-alanine-histidine; 6xHis tag (leader Met-Gly-Ala-His6-Gly-Gly) (N); made in house; host or cells: E. coli (bacterial expression plasmid pTXK1007LTev)
T1 sequence (P06737 2-847 limits assumed): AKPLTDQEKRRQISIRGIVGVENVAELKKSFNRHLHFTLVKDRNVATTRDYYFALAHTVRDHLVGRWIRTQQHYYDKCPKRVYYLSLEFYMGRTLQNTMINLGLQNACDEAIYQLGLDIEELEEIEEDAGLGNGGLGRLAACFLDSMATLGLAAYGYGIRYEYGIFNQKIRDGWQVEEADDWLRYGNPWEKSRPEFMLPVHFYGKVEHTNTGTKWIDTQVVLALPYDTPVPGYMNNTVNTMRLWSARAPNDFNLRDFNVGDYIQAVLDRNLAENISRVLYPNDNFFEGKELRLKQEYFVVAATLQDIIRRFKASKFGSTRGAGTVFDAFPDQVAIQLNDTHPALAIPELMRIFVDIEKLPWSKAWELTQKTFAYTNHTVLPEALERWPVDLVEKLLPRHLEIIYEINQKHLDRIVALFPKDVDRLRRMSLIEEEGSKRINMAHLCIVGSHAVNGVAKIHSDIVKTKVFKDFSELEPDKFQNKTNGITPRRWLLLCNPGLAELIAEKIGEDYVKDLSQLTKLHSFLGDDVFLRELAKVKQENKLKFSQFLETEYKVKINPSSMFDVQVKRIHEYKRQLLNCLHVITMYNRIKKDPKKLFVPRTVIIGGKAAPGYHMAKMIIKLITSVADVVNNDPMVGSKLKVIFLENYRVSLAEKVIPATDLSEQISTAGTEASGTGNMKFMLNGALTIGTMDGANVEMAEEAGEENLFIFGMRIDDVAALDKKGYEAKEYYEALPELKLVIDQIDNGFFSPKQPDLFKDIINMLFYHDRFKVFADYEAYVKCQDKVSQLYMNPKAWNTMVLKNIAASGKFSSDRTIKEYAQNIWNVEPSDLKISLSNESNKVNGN
Assay: Human liver glycogen phosphorylase a enzymatic activity assay (coupled, fluorescent resorufin readout, with and without 10 mM glucose)
Format: biochemical
Conditions: human liver glycogen phosphorylase a enzymatic activity assay

| IC50 | Structure (SMILES) |
| --- | --- |
| 12 nM | COc1ccc(-c2cc(NC(=O)Nc3c(C)cc(C)cc3C)c(C(=O)N[C@H](C(=O)O)C3CCCCC3)s2)cc1 [Example 439, (2S)-cyclohexyl({[5-[4-(methyloxy)phenyl]-3-({[(2,4,6-trimethylphenyl)amino]carbonyl}amino)-2-thienyl]carbonyl}amino)ethanoic acid] |
| 100 nM | COc1ccc(-c2cc(NC(=O)Nc3c(C)cc(C)cc3C)c(C(=O)N[C@H](C(=O)O)C(C)C)s2)cc1 [Example 440] |
| 2110 nM | COc1ccc(-c2cc(NC(=O)Nc3c(C)cc(C)cc3C)c(C(=O)N[C@@H](C(=O)O)C(C)C)s2)cc1 [Example 441, N-{[5-[4-(methyloxy)phenyl]-3-({[(2,4,6-trimethylphenyl)amino]carbonyl}amino)-2-thienyl]carbonyl}-D-valine] |
| 51 nM | CC[C@H](C)[C@H](NC(=O)c1sc(-c2ccc(OC)cc2)cc1NC(=O)Nc1c(C)cc(C)cc1C)C(=O)O [Example 442, N-{[5-[4-(methyloxy)phenyl]-3-({[(2,4,6-trimethylphenyl)amino]carbonyl}amino)-2-thienyl]carbonyl}-L-isoleucine] |
| 43 nM | CCCC[C@H](NC(=O)c1sc(-c2ccc(OC)cc2)cc1NC(=O)Nc1c(C)cc(C)cc1C)C(=O)O [Example 443, N-{[5-[4-(methyloxy)phenyl]-3-({[(2,4,6-trimethylphenyl)amino]carbonyl}amino)-2-thienyl]carbonyl}-L-norleucine] |
| 110 nM | COc1ccc(-c2cc(NC(=O)Nc3c(C)cc(C)cc3C)c(C(=O)N[C@@H](CC3CCCCC3)C(=O)O)s2)cc1 [Example 444, 3-cyclohexyl-N-{[5-[4-(methyloxy)phenyl]-3-({[(2,4,6-trimethylphenyl)amino]carbonyl}amino)-2-thienyl]carbonyl}-L-alanine] |
| 82 nM | COc1ccc(-c2cc(NC(=O)Nc3c(C)cc(C)cc3C)c(C(=O)N[C@@H](COC(C)(C)C)C(=O)O)s2)cc1 [Example 445, O-(1,1-dimethylethyl)-N-{[5-[4-(methyloxy)phenyl]-3-({[(2,4,6-trimethylphenyl)amino]carbonyl}amino)-2-thienyl]carbonyl}-L-serine] |
| 31 nM | COc1ccc(-c2cc(NC(=O)Nc3c(C)cc(C)cc3C)c(C(=O)N[C@H](C(=O)O)[C@@H](C)OC(C)(C)C)s2)cc1 [Example 446, O-(1,1-dimethylethyl)-N-{[5-[4-(methyloxy)phenyl]-3-({[(2,4,6-trimethylphenyl)amino]carbonyl}amino)-2-thienyl]carbonyl}-L-threonine] |
| 26 nM | COc1ccc(-c2cc(NC(=O)Nc3c(C)cc(C)cc3C)c(C(=O)N3CCC[C@H]3C(=O)O)s2)cc1 [Example 447, 1-{[5-[4-(methyloxy)phenyl]-3-({[(2,4,6-trimethylphenyl)amino]carbonyl}amino)-2-thienyl]carbonyl}-L-proline] |
| 370 nM | COc1ccc(-c2cc(NC(=O)Nc3c(C)cc(C)cc3C)c(C(=O)N3CCCC[C@H]3C(=O)O)s2)cc1 [Example 448, (2S)-1-{[5-[4-(methyloxy)phenyl]-3-({[(2,4,6-trimethylphenyl)amino]carbonyl}amino)-2-thienyl]carbonyl}-2-piperidinecarboxylic acid] |

The remaining lines, values behind:

| Structure (SMILES) | IC50 |
| --- | --- |
| COc1ccc(-c2cc(C(=O)N[C@H](C(=O)O)C3CCCCC3)c(NC(=O)Nc3c(Cl)cc(OC(F)(F)F)cc3Cl)s2)cc1 [Example 427, (2S)-cyclohexyl[({2-{[({2,6-dichloro-4-[(trifluoromethyl)oxy]phenyl}amino)carbonyl]amino}-5-[4-(methyloxy)phenyl]-3-thienyl}carbonyl)amino]ethanoic acid] | 27 nM |
| O=C(Nc1sc(-c2ccc(OC(F)(F)F)cc2)cc1C(=O)O)Nc1c(Cl)cc(OC(F)(F)F)cc1Cl [Example 428, 2-{[({2,6-dichloro-4-[(trifluoromethyl)oxy]phenyl}amino)carbonyl]amino}-5-{4-[(trifluoromethyl)oxy]phenyl}-3-thiophenecarboxylic acid] | 1220 nM |
| O=C(Nc1sc(-c2ccc(OC(F)(F)F)cc2)cc1C(=O)N[C@H](C(=O)O)C1CCCCC1)Nc1c(Cl)cc(OC(F)(F)F)cc1Cl [Example 429, (2S)-cyclohexyl{[(2-{[({2,6-dichloro-4-[(trifluoromethyl)oxy]phenyl}amino)carbonyl]amino}-5-{4-[(trifluoromethyl)oxy]phenyl}-3-thienyl)carbonyl]amino}ethanoic acid] | 96 nM |
| Cc1cc(C)c(NC(=O)Nc2sc(-c3ccc(OC(F)(F)F)cc3)cc2C(=O)O)c(C)c1 [Example 430, 5-{4-[(trifluoromethyl)oxy]phenyl}-2-({[(2,4,6-trimethylphenyl)amino]carbonyl}amino)-3-thiophenecarboxylic acid] | 740 nM |
| Cc1cc(C)c(NC(=O)Nc2sc(-c3ccc(OC(F)(F)F)cc3)cc2C(=O)N[C@H](C(=O)O)C2CCCCC2)c(C)c1 [Example 431, (2S)-cyclohexyl({[5-{4-[(trifluoromethyl)oxy]phenyl}-2-({[(2,4,6-trimethylphenyl)amino]carbonyl}amino)-3-thienyl]carbonyl}amino)ethanoic acid] | 330 nM |
| COc1ccc(-c2cc(NC(=O)Nc3c(Cl)cc(OC(F)(F)F)cc3Cl)c(C(=O)O)s2)cc1 [Example 432, 3-{[({2,6-dichloro-4-[(trifluoromethyl)oxy]phenyl}amino)carbonyl]amino}-5-[4-(methyloxy)phenyl]-2-thiophenecarboxylic acid] | 2700 nM |
| COc1ccc(-c2cc(NC(=O)Nc3c(Cl)cc(OC(F)(F)F)cc3Cl)c(C(=O)N[C@H](C(=O)O)C3CCCCC3)s2)cc1 [Example 433, (2S)-cyclohexyl[({3-{[({2,6-dichloro-4-[(trifluoromethyl)oxy]phenyl}amino)carbonyl]amino}-5-[4-(methyloxy)phenyl]-2-thienyl}carbonyl)amino]ethanoic acid] | 80 nM |
| O=C(Nc1cc(-c2ccc(OC(F)(F)F)cc2)sc1C(=O)O)Nc1c(Cl)cccc1Cl [Example 434, 3-({[(2,6-dichlorophenyl)amino]carbonyl}amino)-5-{4-[(trifluoromethyl)oxy]phenyl}-2-thiophenecarboxylic acid] | 2120 nM |
| O=C(Nc1cc(-c2ccc(OC(F)(F)F)cc2)sc1C(=O)N[C@H](C(=O)O)C1CCCCC1)Nc1c(Cl)cccc1Cl [Example 435, (2S)-cyclohexyl{[(3-({[(2,6-dichlorophenyl)amino]carbonyl}amino)-5-{4-[(trifluoromethyl)oxy]phenyl}-2-thienyl)carbonyl]amino}ethanoic acid] | 1630 nM |
| Cc1cc(C)c(NC(=O)Nc2cc(-c3ccc(OC(F)(F)F)cc3)sc2C(=O)O)c(C)c1 [Example 436, 5-{4-[(trifluoromethyl)oxy]phenyl}-3-({[(2,4,6-trimethylphenyl)amino]carbonyl}amino)-2-thiophenecarboxylic acid] | 1570 nM |
| Cc1cc(C)c(NC(=O)Nc2cc(-c3ccc(OC(F)(F)F)cc3)sc2C(=O)N[C@H](C(=O)O)C2CCCCC2)c(C)c1 [Example 437, (2S)-cyclohexyl({[5-{4-[(trifluoromethyl)oxy]phenyl}-3-({[(2,4,6-trimethylphenyl)amino]carbonyl}amino)-2-thienyl]carbonyl}amino)ethanoic acid] | 220 nM |
| COc1ccc(-c2cc(NC(=O)Nc3c(C)cc(C)cc3C)c(C(=O)O)s2)cc1 [Example 438, 5-[4-(methyloxy)phenyl]-3-({[(2,4,6-trimethylphenyl)amino]carbonyl}amino)-2-thiophenecarboxylic acid] | 330 nM |
